pIC50: −log10 of the molar value.
Experiments:
[1] = DNDI: Cytotoxicity against human MRC-5 lung fibroblast cells.; settings: IC50
[2] = tested on: Trypanosoma brucei brucei; test: microbe, parasite or virus in culture; type: functional, organism-based, STIB 795
Description: DNDI: Inhibition of Human African Trypanosomiasis (HAT), STIB 795, in vitro

Compound	pIC50 [1]	pIC50 ([2]; Trypanosoma brucei, STIB 795)	pIC50 [2]
CN(C)CCCNc1nc(-c2ccc(Cl)cc2)nc2ccccc12	< 4.68	5.43	–
Cc1conc1NC(c1cccs1)c1ccc2cccnc2c1O (centres undefined)	< 4.68	5.24	–
COc1ccc(C(=O)O/N=C(\N)c2ccccc2Cl)cc1OC	< 4.68	6.16	–
CCCn1c(=O)c2c(nc3n2CCN3Cc2ccco2)n(C)c1=O	< 4.38	5.31	–
Cc1c(-c2cccc(NC(=O)c3cccs3)c2)nc2ncccn12	< 4.38	5.29	–
CC(Nc1nc(N2CCNCC2)nc2ccccc12)c1ccccc1 (centres undefined)	< 5.38	5.83	–
CN1CCc2nc3sc(C(=O)c4ccc(F)cc4)c(N)c3cc2C1	< 4.38	5.20	–
O=C(NCCc1csc(-c2cccc(F)c2)n1)c1cccs1	< 4.38	≥ 7.37	–
CC1CCC2C(=O)N(c3ccc(Cc4ccncc4)cc3)C(=O)C2C1 (centres undefined)	< 4.38	5.27	5.27
c1ccc(Sc2cccc3ccccc23)c(CNC2=NCCN2)c1	< 4.68	6.37	–
COc1ccc(-c2cc3ccccc3n2CC(O)CNCCO)cc1 (centres undefined)	< 4.68	5.29	–
O=C(N/N=C(\c1ccccc1)c1ccccn1)c1ccccc1Cl	< 5.38	5.75	–
COc1ccc(C2=NNc3cccc4c(OC)ccc2c34)cc1OC	< 4.38	5.25	5.27
NCCNCCOC(c1ccc(Cl)cc1)c1ccc(Cl)cc1	5.25	6.62	–
CC(C)(C)c1ccc(/C(=N\NC(=N)N)c2ccc(Cl)cc2)cc1	< 4.68	5.96	–
O=C(O)c1ccc(NNc2c3ccccc3nc3ccccc23)cc1	< 4.38	5.99	–
CC1(C)N=C(N)N=C(N)N1OCc1cccc(C2CCCCC2)c1	< 4.38	5.33	–
O=C(c1ccc(Cl)cc1)C(CN1CCOCC1)c1ccccc1 (centres undefined)	< 4.68	5.51	5.40
Cc1cc(C)c(C(=O)CC(N2CCCCC2)C(F)(F)F)c(=O)[nH]1 (centres undefined)	< 4.68	5.64	–
CCOC(=O)C/C(C)=N/Nc1ccc(-n2nc(C)c(C)c2C)nn1	< 4.98	5.67	–
CC1(C)CC(=O)C(C2=C(Cl)C(=O)c3ccccc3C2=O)=C(O)C1	< 4.38	6.19	6.23
CC(=O)CC1(O)C(=O)Nc2ccc(I)cc21 (centres undefined)	< 4.38	5.50	–
Cc1cc(Cl)cc(Cl)c1OCCCCCN1CCNCC1	< 4.68	5.64	–

Compound	pIC50 [1]	pIC50 ([2]; Trypanosoma brucei, STIB 795)	pIC50 [2]
Cn1c(Cc2ccccc2)nn(C2CC(=O)C3OCC2O3)c1=S (centres undefined)	< 4.38	5.31	–
CC1CC(C)(C)Nc2ccc(OCc3cccc4ccccc34)cc21 (centres undefined)	< 4.68	6.08	–
CCOc1cc2c(cc1OCC)C(c1ccc(Cl)cc1)NCC2 (centres undefined)	< 4.68	5.25	–
CC(C)/C(N)=N/OC(=O)c1ccc(I)cc1	< 4.38	6.09	–
O=C1NC(=S)NC(=O)C1=Cc1c2ccccc2cc2ccccc12	< 4.38	5.28	–
Cc1cccc(-n2nnn(C3CC(=O)C4OCC3O4)c2=S)c1C (centres undefined)	< 4.38	5.28	–
COc1ccc2c(C)cc(Sc3cccc4cccnc34)nc2c1	< 4.38	5.25	–
CC(C)(C)C1C/C(=C\c2cccnc2)C(=O)/C(=C/c2cccnc2)C1 (centres undefined)	< 5.38	7.01	–
O=C(CCN1CCCCC1)Nc1ccc(OC(F)(F)Cl)cc1	< 4.38	5.37	5.41
N/C(=N\OC(=O)C12CC3CC(CC(C3)C1)C2)c1ccccc1Cl	< 4.38	6.43	–
O=c1c(Oc2ccccc2Br)coc2cc(O)ccc12	< 4.38	5.35	–
CCOc1cc(-n2ncc(Cl)c(Cl)c2=O)nc(SC)n1	< 5.38	5.82	–
Cc1cc(/C=N/n2cnnc2)c(C)n1-c1cccc(C(F)(F)F)c1	< 4.38	> 7.40	–
c1ccc2cc3c(NCCCNC4CCCCC4)ccnc3cc2c1	5.31	6.53	–
COC(=O)C(NC(=O)c1c(Cl)sc2nnsc12)C(C)C (centres undefined)	< 5.38	5.39	–
Cc1cc(OCC(O)CNC(C)c2ccccc2)cc(C)c1Cl (centres undefined)	< 4.38	5.33	–
Oc1c(C(Nc2nccs2)c2ccccn2)ccc2cccnc12 (centres undefined)	5.38	6.01	–
NCCCCNCCOC(c1ccc(F)cc1)c1ccc(F)cc1	< 4.68	5.59	–
CC1CCN(Cc2cc(Br)c(O)c3ncccc23)CC1	5.27	5.79	–
COc1ccc2c(-c3ccccc3)cc(NCCCN(C)C)nc2c1	< 4.68	5.44	–
CN1CCN(Cc2cc(Br)c3cccnc3c2O)CC1	< 5.38	5.29	–
CC(C)CC(=O)NC(=C(Cl)Cl)S(=O)(=O)c1ccccc1	< 5.38	5.27	–
COc1ccc(C)cc1/N=N/c1ccc(O)c2nc(/C=N/O)ccc12	< 4.68	5.63	–

Compound	pIC50 [1]	pIC50 ([2]; Trypanosoma brucei, STIB 795)	pIC50 [2]
O=C(N/N=C/c1cc2c3c(c1O)CCCN3CCC2)c1ccncc1	< 6.38	6.54	–
CCc1nnc(NC(=O)c2cc3ccc4ccc(C)nc4c3[nH]2)s1	< 4.38	6.31	–
C=CCn1c(=N)n(CC(O)COc2ccccc2C)c2ccccc21 (centres undefined)	< 4.68	6.14	–
CCCC(=O)NC(c1cccc(F)c1)c1ccc2cccnc2c1O (centres undefined)	< 4.68	5.15	–
CC(C)NCC(O)CNc1cccc2c1C(=O)c1ccccc1C2=O (centres undefined)	< 5.38	5.47	–
O=C1CC(n2nnn(-c3ccccc3Cl)c2=S)C2COC1O2 (centres undefined)	< 4.38	5.34	–
O=S1(=O)CCC(N2COc3c(cc(Cl)c4cccnc34)C2)C1 (centres undefined)	< 5.38	5.29	–
CN1C/C(=C/c2ccc(C#N)cc2)C(=O)/C(=C/c2ccc(C#N)cc2)C1	< 4.68	6.44	–
CC(C)c1ccc(OCc2ccc(C(=O)NCCN(C)C)cc2)cc1	< 4.68	5.23	–
Clc1cccc(CNC2=Nc3ccccc3NC23CCNCC3)c1	5.04	5.92	–
Cc1ncc(CO)c(/C=N/NC(=O)c2ccc(C(C)(C)C)cc2)c1O	5.20	5.37	–
CC(C)NCC(O)COc1cccc2c(=O)c3ccccc3sc12 (centres undefined)	< 4.68	5.26	–
c1ccc(Cn2s/c(=N\c3ccccc3)nc2-c2ccccc2)cc1	< 4.68	5.86	–
CN(/C=C/C=C/C=C/C1=[N+](C)c2ccccc2C1(C)C)c1ccccc1	< 4.68	5.71	–
Clc1ccc(C[n+]2cc(-c3ccccc3)n3c2CCC3)c(Cl)c1	< 4.38	5.28	–
COc1ccccc1C/C(N)=N/OC(=O)c1ccc(OC)c(OC)c1	< 5.38	6.25	–
COc1cc(C(=O)N/N=C(/C)c2ccccc2O)cc(OC)c1OC	< 5.38	5.35	–
CC(=O)O[C@H]1CCC2C3CCC4=CC(=O)CC[C@]4(C)C3C(=O)C[C@@]21C (some centres undefined)	5.19	6.41	–
c1ccc(COc2ccc(-c3cc(C4CCNCC4)[nH]n3)cc2)cc1	< 4.98	5.71	–
Cc1cccc2c1NC(=O)C2(c1ccc(O)cc1)c1ccc(O)cc1	< 4.68	5.24	–
S=C(N/N=C(/c1ccccc1)c1ccccn1)Nc1ccccc1	< 5.38	5.32	–

Reference: ChEMBL document CHEMBL2094269, “WEHI/Eskitis Trypanosoma b. brucei screening data”
